Experimental data reported in PubChem BioAssay (NCI).
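Here, GI50 denotes the concentration required for 50% inhibition of growth. TGI denotes the concentration required for complete inhibition of growth.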

Experiments:
Assay in all cases: NCI tumour cell line growth inhibition, 384-well format; in the data active = GI50 below about 0.43 µM; inactive = the rest
LOX IMVI melanoma = tested on: LOX IMVI melanoma
MDA-MB-435 melanoma = tested on: MDA-MB-435 melanoma
PC-3 prostate = tested on: PC-3 prostate
RPMI-8226 leukemia = tested on: RPMI-8226 leukemia
UACC-257 melanoma = tested on: UACC-257 melanoma
TK-10 renal = tested on: TK-10 renal
SK-MEL-5 melanoma = tested on: SK-MEL-5 melanoma
MCF7 breast = tested on: MCF7 breast
NCI-H322M lung = tested on: NCI-H322M lung
HCT-15 colon = tested on: HCT-15 colon
IGROV1 ovarian = tested on: IGROV1 ovarian
NCI-H23 lung = tested on: NCI-H23 lung
NCI/ADR-RES ovarian = tested on: NCI/ADR-RES ovarian
NCI-H460 NSCLC = tested on: NCI-H460 NSCLC
OVCAR-3 ovarian = tested on: OVCAR-3 ovarian
OVCAR-8 ovarian = tested on: OVCAR-8 ovarian
COLO 205 colon = tested on: COLO 205 colon
HCC-2998 colon = tested on: HCC-2998 colon
EKVX NSCLC = tested on: EKVX NSCLC
SNB-75 CNS = tested on: SNB-75 CNS
NCI-H226 lung = tested on: NCI-H226 lung
HOP-62 NSCLC = tested on: HOP-62 NSCLC
SF-268 CNS = tested on: SF-268 CNS
NCI-H522 lung = tested on: NCI-H522 lung
MOLT-4 leukemia = tested on: MOLT-4 leukemia
RXF 393 renal = tested on: RXF 393 renal
OVCAR-5 ovarian = tested on: OVCAR-5 ovarian
M14 melanoma = tested on: M14 melanoma
786-0 renal = tested on: 786-0 renal
HS 578T breast = tested on: HS 578T breast
A498 renal = tested on: A498 renal
SK-MEL-28 melanoma = tested on: SK-MEL-28 melanoma
SF-539 CNS = tested on: SF-539 CNS
MDA-MB-231 breast = tested on: MDA-MB-231 breast
SF-295 CNS = tested on: SF-295 CNS
MALME-3M melanoma = tested on: MALME-3M melanoma
DU-145 prostate = tested on: DU-145 prostate
A549 NSCLC = tested on: A549 NSCLC
KM12 colon = tested on: KM12 colon
HT29 colon = tested on: HT29 colon
U251 glioblastoma = tested on: U251 glioblastoma
T-47D breast = tested on: T-47D breast
OVCAR-4 ovarian = tested on: OVCAR-4 ovarian
HL-60(TB) leukemia = tested on: HL-60(TB) leukemia
SNB-19 CNS = tested on: SNB-19 CNS
CCRF-CEM leukemia = tested on: CCRF-CEM leukemia
SW-620 colon = tested on: SW-620 colon
HOP-92 NSCLC = tested on: HOP-92 NSCLC
UO-31 renal = tested on: UO-31 renal
UACC-62 melanoma = tested on: UACC-62 melanoma
K-562 leukemia = tested on: K-562 leukemia
CAKI-1 renal = tested on: CAKI-1 renal
MDA-MB-468 breast = tested on: MDA-MB-468 breast
HCT-116 colon = tested on: HCT-116 colon
SN12C renal = tested on: SN12C renal
SK-OV-3 ovarian = tested on: SK-OV-3 ovarian
BT-549 breast = tested on: BT-549 breast
ACHN renal = tested on: ACHN renal

CC(C)(F)C[C@H](N[C@@H](c1ccc(-c2ccc(S(C)(=O)=O)cc2)cc1)C(F)(F)F)C(=O)NC1(C#N)CC1
28.9 µM: TGI (HOP-92 NSCLC)
86.9 µM: TGI (MALME-3M melanoma)
63 µM: TGI (HOP-62 NSCLC)
55.4 µM: TGI (UACC-257 melanoma)
63.4 µM: TGI (SF-295 CNS)
44.1 µM: TGI (SF-539 CNS)
55.5 µM: TGI (U251 glioblastoma)
38 µM: TGI (OVCAR-4 ovarian)
inactive: GI50 (LOX IMVI melanoma) 59.3 µM | GI50 (MDA-MB-435 melanoma) 96.2 µM | GI50 (PC-3 prostate) 41.3 µM | GI50 (RPMI-8226 leukemia) 55.9 µM | GI50 (UACC-257 melanoma) 26.7 µM | GI50 (TK-10 renal) 33.1 µM | GI50 (SK-MEL-5 melanoma) 23 µM | GI50 (MCF7 breast) 27.3 µM | GI50 (NCI-H322M lung) 49.8 µM | GI50 (HCT-15 colon) > 100 µM | GI50 (IGROV1 ovarian) > 100 µM | GI50 (NCI-H23 lung) 30.9 µM | GI50 (NCI/ADR-RES ovarian) 88.1 µM | GI50 (NCI-H460 NSCLC) 22.4 µM | GI50 (OVCAR-3 ovarian) 31.1 µM | GI50 (OVCAR-8 ovarian) 20.7 µM | GI50 (COLO 205 colon) > 100 µM | GI50 (HCC-2998 colon) > 100 µM | GI50 (EKVX NSCLC) 39.2 µM | GI50 (SNB-75 CNS) 20.5 µM | GI50 (NCI-H226 lung) 23.5 µM | GI50 (HOP-62 NSCLC) 22.8 µM | GI50 (SF-268 CNS) 22.1 µM | GI50 (NCI-H522 lung) 21.4 µM | GI50 (MOLT-4 leukemia) 41.1 µM | GI50 (RXF 393 renal) 18.3 µM | GI50 (OVCAR-5 ovarian) > 100 µM | GI50 (M14 melanoma) 71.5 µM | GI50 ([…]-0 renal) 21.9 µM | GI50 (HS 578T breast) 21.2 µM | GI50 (A498 renal) 21.3 µM | GI50 (SK-MEL-28 melanoma) 40.9 µM | GI50 (SF-539 CNS) 23.1 µM | GI50 (MDA-MB-231 breast) 39.6 µM | GI50 (SF-295 CNS) 22.9 µM | GI50 (MALME-3M melanoma) 33.7 µM | GI50 (DU-145 prostate) 46.4 µM | GI50 (A549 NSCLC) 34.9 µM | GI50 (KM12 colon) 43.6 µM | GI50 (HT29 colon) > 100 µM | GI50 (U251 glioblastoma) 24.7 µM | GI50 (T-47D breast) 36.6 µM | GI50 (OVCAR-4 ovarian) 19.8 µM | GI50 (HL-60(TB) leukemia) > 100 µM | GI50 (SNB-19 CNS) 35.7 µM | GI50 (CCRF-CEM leukemia) > 100 µM | GI50 (SW-620 colon) > 100 µM | GI50 (HOP-92 NSCLC) 11.2 µM | GI50 (UO-31 renal) > 100 µM | GI50 (UACC-62 melanoma) 42.1 µM | GI50 (K-562 leukemia) > 100 µM | GI50 (CAKI-1 renal) 30.5 µM | GI50 (MDA-MB-468 breast) 39.4 µM | GI50 (HCT-116 colon) > 100 µM | GI50 (SN12C renal) 34.9 µM | GI50 (SK-OV-3 ovarian) 27.3 µM | GI50 (BT-549 breast) 39.7 µM | GI50 (ACHN renal) > 100 µM
53.5 µM: TGI (786-0 renal)
54.6 µM: TGI (NCI-H226 lung)
91.1 µM: TGI (MCF7 breast)
92.4 µM: TGI (SNB-19 CNS)
45.3 µM: TGI (HS 578T breast)
46.1 µM: TGI (OVCAR-8 ovarian)
53.8 µM: TGI (NCI-H460 NSCLC)
55.8 µM: TGI (SK-MEL-5 melanoma)
46.7 µM: TGI (A498 renal)
76.7 µM: TGI (OVCAR-3 ovarian)
69.6 µM: TGI (SK-OV-3 ovarian)
41 µM: TGI (SF-268 CNS)
35.3 µM: TGI (RXF 393 renal)
97.9 µM: TGI (TK-10 renal)
83 µM: TGI (NCI-H23 lung)
40.2 µM: TGI (NCI-H522 lung)
37.3 µM: TGI (SNB-75 CNS)
> 100 µM: TGI (LOX IMVI melanoma) | TGI (MDA-MB-435 melanoma) | TGI (PC-3 prostate) | TGI (RPMI-8226 leukemia) | TGI (NCI-H322M lung) | TGI (HCT-15 colon) | TGI (IGROV1 ovarian) | TGI (NCI/ADR-RES ovarian) | TGI (COLO 205 colon) | TGI (HCC-2998 colon) | TGI (EKVX NSCLC) | TGI (MOLT-4 leukemia) | TGI (OVCAR-5 ovarian) | TGI (M14 melanoma) | TGI (SK-MEL-28 melanoma) | TGI (MDA-MB-231 breast) | TGI (DU-145 prostate) | TGI (A549 NSCLC) | TGI (KM12 colon) | TGI (HT29 colon) | TGI (T-47D breast) | TGI (HL-60(TB) leukemia) | TGI (CCRF-CEM leukemia) | TGI (SW-620 colon) | TGI (UO-31 renal) | TGI (UACC-62 melanoma) | TGI (K-562 leukemia) | TGI (CAKI-1 renal) | TGI (MDA-MB-468 breast) | TGI (HCT-116 colon) | TGI (SN12C renal) | TGI (BT-549 breast) | TGI (ACHN renal)
